Assay results published in patent US9657064B2, “Cell penetrating peptides” (UNIVERSITE DE GENEVE, priority 2012, dated 2017).

Experiments:
[1] = test system: human astrocytoma cells U251; assay: In vitro transduction of fluorescein-labeled CPP-OVA fusion polypeptides, flow cytometry; type: cell-based; settings: 0.9 μM, 2 h at 37° C., ratio of mean fluorescence index between cells alone and loaded cells
Protocol: (§1) Transduction into cells was monitored using different CPP-OVA fusion polypeptides comprising CPP1, CPP2, CPP8, or CPP10. Each of these CPPs fused with the immunodominant CD8^+ T cell epitope from ovalbumin were chemically synthesized and labeled with fluorescein. 5.10^5 cells were incubated for 2 h at 37° C. with 0.9 μM of the different fusion polypeptides. The cells tested were human lymphoid cells K562, murine lymphoid cells EL4, human astrocytoma cells U251 and murine astrocytoma cells GL261. The cells were washed in an acid buffer to remove all the membrane bound peptide and stained for viability with Live-Dead Yellow. Analysis was performed by flow cytometry. The index of fluorescence indicates the level of fluorescence above the natural auto-fluorescence of the cells. It is the ratio of the mean fluorescence index measured by flow cytometry between the cells alone and the cells loaded with CPP-OVA fusion polypeptides.

[2] = test system: human lymphoid cells K562; assay: as above; type: cell-based; settings: 0.9 μM, 2 h at 37° C., ratio of mean fluorescence index between cells alone and loaded cells
Protocol: as §1

[3] = test system: murine astrocytoma cells GL261; assay: as above; type: cell-based; settings: 0.9 μM, 2 h at 37° C., ratio of mean fluorescence index between cells alone and loaded cells
Protocol: as §1

[4] = test system: murine lymphoid cells EL4; assay: as above; type: cell-based; settings: 0.9 μM, 2 h at 37° C., ratio of mean fluorescence index between cells alone and loaded cells
Protocol: as §1

[5] = test system: ovalbumin CD8+ epitope specific immune response; assay: In vivo vaccination of mice with different CPP-OVA fusion polypeptides, Pentamer staining in blood (Example 5); settings: for Fold increase in proliferation compared to CPP14: 10 nmol s.c. twice at 14 days of interval, with anti-CD40 and poly-IC, relative to CPP14-OVA reference
Protocol: The experiment was performed as described in Example 3.
Four to eight mice per group were vaccinated twice subcutaneously at 14 days of interval with 10 nmol of fusion polypeptides comprising one of the CPPs indicated in Table 2 fused to the ovalbumin CD8^+ epitope (SEQ ID NO: 3) flanked by the spacers of SEQ ID NO: 11 and SEQ ID NO: 12 at the N-terminal and C-terminal part of the CD8^+ epitope, respectively. Each CPP-OVA fusion polypeptide was injected in PBS with 100 μg anti-CD40. 50 μg poly-IC was injected intramuscularly 7 days after the second vaccination. Immune response was monitored in the blood with a Pentamer staining followed by flow cytometry analysis.
The results are presented in Table 3 as fold increase relative to a CPP-OVA fusion polypeptide of reference comprising CPP14 of SEQ ID NO: 22.

[6] = test system: ovalbumin-specific CD8+ T cells; assay: Vaccination of mice with CPP-OVA fusion polypeptides, multimer staining of splenocytes (Example 3); type: in vivo; settings: 2 s.c. vaccinations at 14 days of interval, 20 μg fusion polypeptide + 100 μg anti-CD40, 50 μg poly-IC i.m., PBS control 0.18%
Protocol: Mice were vaccinated twice sub-cutaneously at 14 days of interval with 20 μg of each CPPs-OVA fusion polypeptides and 100 μg anti-CD40, 50 μg poly-IC was injected intramuscularly 10 days after the boost, the mice were sacrificed and the splenocytes stained with a multimer and anti-CD8. Negative control with PBS (A); CPP1-OVA (B); CPP2-OVA (C).
To test the capacity of the polypeptides corresponding to constructs 1 and 2 to stimulate antigen-specific CD8^+ T cells in more stringent conditions, they were tested in vivo in a vaccination protocol (FIG. 2). In order to elicit an in vivo response, the polypeptide vaccine must be taken up by naturally present antigen presenting cells in the injected animal, and stimulation of polyclonal T cells must be highly efficient if ovalbumin-specific T cells are to be detected ex vivo. The read-out for these experiments was flow cytometry of splenocytes, using MHC-peptide multimers to detect ovalbumin-specific CD8^+ T cells.

QHYREVAAAKSSEND [CPP8]
index of fluorescence [1]: 2 | index of fluorescence [2]: 1.9 | index of fluorescence [3]: 1.4 | index of fluorescence [4]: 2.5 | Fold increase in proliferation compared to CPP14 [5]: 1.28

REVAAAKSSENDRLRLLLK [CPP10]
index of fluorescence [1]: 4 | index of fluorescence [2]: 3.7 | index of fluorescence [3]: 1.9 | index of fluorescence [4]: 4 | Fold increase in proliferation compared to CPP14 [5]: 2.17

KRYKNRVA [CPP7, 8-amino acid-long fragment of Zebra, positions 178 to 185; negative control, tested as CPP-OVA fusion, reference compound]
immunogenic potential compared to the reference fusion polypeptide comprising CPP14 ([5]; 10 nmol s.c. twice): lower immunogenic potential | Fold increase in proliferation compared to CPP14 [5]: 0.65

KRYKNRVASRKSRAKFKQLLQHYREVAAAK [CPP2]
index of fluorescence [1]: 25.1 | index of fluorescence [2]: 15 | index of fluorescence [3]: 20.8 | index of fluorescence [4]: 57.7 | Fold increase in proliferation compared to CPP14 [5]: 1.41

KRYKNRVASRKSRAKFKQLLQHYREVAAAKEQLESIINFEKLTEWT [construct 2]
CD8+ T cells multimer positive (ovalbumin-specific CD8+ T cells) [6]: over 1%

KRYKNRVASRKSRAKFK (CCP1) [CPP1]
index of fluorescence [1]: 4.5 | index of fluorescence [2]: 3 | index of fluorescence [3]: 2.4 | index of fluorescence [4]: 4.8 | Fold increase in proliferation compared to CPP14 [5]: 1.74
